Measured values taken from patent US20070190046A1, “Anti-abeta antibody” (Eli Lilly and Company, priority 2004, published 2007).

Test system: Aβ peptide naturally expressed by HEK 293 cells
Test: Acid urea gel / western blot analysis of Aβ peptide in purified antibody from HEK 293 cell culture with γ-secretase inhibitor
Assay type: cell-based, human
Conditions: for FL (Full length hAβ40) / T2 (N-terminal truncated hAβ40, #2): no-inhibitor control 70; for T1 (N-terminal truncated hAβ40, #1): no-inhibitor control 38; for Total hAβ40: no-inhibitor control 178
Method: A γ-secretase inhibitor, [drawing 1] (WO 98/28268), is added to the HEK 293 cell culture in which an anti-Aβ antibody is being expressed to reduce the amount of Aβ peptide naturally expressed by cells. Cell culture samples for this example include a control culture with no inhibitor added, a culture in which 1 nM inhibitor is added at time=0 and every 24 hours thereafter for 5 days (for a 5 day transfection), and a culture in which 1 nM inhibitor is added at time=0. These samples are purified using a Protein A column as well as size exclusion chromatography. The samples are analyzed for Aβ peptide content by acid-urea gel separation and subsequent western blot analysis as detailed below.
The following protocol describes a technique for formic acid denaturation of samples and subsequent electrophoresis through an acid-urea polyacrylamide matrix:
• 1) Clean and assemble acrylamide gel plates for casting. For example, Hoeffer plates into a casting stand (16 cm×14 cm plates with 1.5 mm spacers). Clean plates thoroughly with detergent, rinse in distilled H2O(dH2O), rinse with acetone, and finally rinse with 100% EtOH. • 2) Mark plates at 10 cm (22% separating gel) and 11.75 cm (10% step gel). Making the Gel and Gel Concentrations • 1) Acrylamide (40% solution, such as pre-made Bio-Rad/cat#161-0148)
• Add urea, acrylamide, glacial acetic acid (GAA), and dH2O into 50 mL conical tubes. Vortex briefly and incubate in a 55° C. water bath. Vortex every few minutes until the urea is completely in solution. Degas 22% and 10% solutions and place solutions on ice, leaving the 4% stacker in the water bath. Pouring the Gel (at Room Temperature) • 1) Add N,N,N′,N′-tetramethylethylenediamine (TEMED) to the 22% solution and gently invert several times to mix. Next add the 10% APS (ammonium persulfate) and invert several times. Using a 25 mL pipette, slowly pour solution between the plates until it reaches the 10 cm mark. • 2) Carefully add a 750 μL overlay of 5% GAA. Use a P1000 pipette to very slowly let the 5% GAA run down one side of the glass plates onto the 22% resolving gel. • 3) Allow to polymerize at room temperature for at least 1 hour. • 4) Add the TEMED and 10% APS to the 10%-acrylamide solution in the same manner as for the 22%. Remove the overlay and add the solution until reaching the second mark at 11.75 cm. Again, carefully pour a 750 μL overlay of 5% GAA as above. Allow the gel to polymerize for 30 minutes. • 5) Prior to adding the 4% stacker solution, place the gel stand in a 37° C. incubator for 15 minutes to warm gels. This aids in the wells polymerizing correctly. Degas the 4% stacker solution and keep at 55° C. Remove the overlay. Add the TEMED, invert several times, and then add the 10% APS. Quickly pour this solution and insert a clean-dry 12-well comb (or a 15-well comb). After pouring the stacker, place the stand back in the incubator for 15 minutes then remove. Allow to polymerize on the bench top. The stacker will take at least 1.5 hours to polymerize completely. • *Note: During the polymerization steps, air pockets may appear in the resolving gel. These pockets form due to the change in temperature of the gel during and after polymerization. […] Sample Preparation • Analysis upwards of 3 mg of protein in a single lane will achieve reasonable band results. Conditions for analyzing protein are as follows.
Sample: • 30 μL of […] protein (maximum concentration of protein) • 80 μL formic acid (98%) (ICN cat#15162-90) • 20 μL Acid Loading Buffer (80% formic acid, 60% sucrose and 0.02% methyl green; • Make buffer by dissolving 6 g sucrose in ˜8 mL of ˜99% formic acid. Heat and agitate the mixture. After the sucrose has dissolved, the volume of the solution is adjusted to 10 mL with ˜99% formic acid. Add 2 μL of 1% methyl green solution.) • 1 μl β-Mercaptoethanol • *Note: Adjust volumes as needed. […]

[1] = HEK 293 culture, 1 nM inhibitor added at time=0 only
[2] = HEK 293 culture, 1 nM inhibitor at time=0 and every 24 hours for 5 days

## C[C@H](NC(=O)[C@@H](O)c1cc(F)cc(F)c1)C(=O)N[C@@H]1C(=O)N(C)c2ccccc2-c2ccccc21 [Inhibitor]
HEK 293 culture expressing anti-Aβ antibody, 1 nM inhibitor added at time=0 and every 24 hours for 5 days
  FL (Full length hAβ40): 4 pg/μg IgG
[1]
  T1 (N-terminal truncated hAβ40, #1): 27 pg/μg IgG
  FL (Full length hAβ40): 56 pg/μg IgG
  T2 (N-terminal truncated hAβ40, #2): 52 pg/μg IgG
  Total hAβ40: 135 pg/μg IgG
[2]
  T1 (N-terminal truncated hAβ40, #1): 0 pg/μg IgG
  T2 (N-terminal truncated hAβ40, #2): 3 pg/μg IgG
  Total hAβ40: 7 pg/μg IgG
